Assay results as given in patent publication US20240199546A1, “INHIBITORS OF SOLUTE CARRIER FAMILY 6A MEMBER 19 (SLC6A19) AND METHODS OF USE THEREOF” (Maze Therapeutics, Inc., priority 2022, published 2024).

molecular target: T1, human SLC6A19 and TMEM27 (Homo sapiens, UniProt Q695T7); assay: Radiolabelled (3H) leucine uptake in CHO cells with doxycycline-inducible expression of human SLC6A19 and TMEM27 (Example B-1); assay type: cell-based; details: CHO cells with doxycycline-inducible expression of human SLC6A19 and TMEM27, read-out: SLC6A19_Radioligand Uptake Assay IC50
T1 construct: expressed in transfected cells
T1 sequence (Q695T7 1-634): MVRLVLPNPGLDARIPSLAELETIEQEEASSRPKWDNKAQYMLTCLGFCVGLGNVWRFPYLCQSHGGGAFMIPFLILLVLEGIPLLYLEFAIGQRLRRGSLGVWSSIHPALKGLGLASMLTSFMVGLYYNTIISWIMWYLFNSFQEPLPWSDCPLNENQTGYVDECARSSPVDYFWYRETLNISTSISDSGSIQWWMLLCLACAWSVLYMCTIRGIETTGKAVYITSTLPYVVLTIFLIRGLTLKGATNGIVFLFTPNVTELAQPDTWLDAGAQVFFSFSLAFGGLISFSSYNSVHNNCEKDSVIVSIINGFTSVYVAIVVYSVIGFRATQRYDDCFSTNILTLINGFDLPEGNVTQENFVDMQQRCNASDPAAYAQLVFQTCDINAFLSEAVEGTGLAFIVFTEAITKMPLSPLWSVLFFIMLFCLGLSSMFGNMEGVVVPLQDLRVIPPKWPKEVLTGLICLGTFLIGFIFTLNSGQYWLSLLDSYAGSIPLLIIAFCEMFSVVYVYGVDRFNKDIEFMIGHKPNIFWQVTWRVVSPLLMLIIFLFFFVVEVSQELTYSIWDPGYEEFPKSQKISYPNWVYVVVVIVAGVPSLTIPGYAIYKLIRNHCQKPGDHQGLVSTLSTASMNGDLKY
T1 sequence (Q9HBJ8 15-222 partner): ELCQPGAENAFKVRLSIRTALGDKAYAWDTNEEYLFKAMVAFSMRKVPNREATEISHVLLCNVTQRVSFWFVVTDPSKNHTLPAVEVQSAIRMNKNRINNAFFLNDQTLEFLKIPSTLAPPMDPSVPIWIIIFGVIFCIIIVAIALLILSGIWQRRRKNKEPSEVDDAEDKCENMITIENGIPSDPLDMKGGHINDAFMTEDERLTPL
In short: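 CHO cells were induced with doxycycline for 18 h at 37 °C, washed in HBSS, then exposed to compounds for 1 h: 8-point, 3-fold dilutions in duplicate, 0.5% DMSO final. Uptake measured by scintillation counting after 2 h shaking. Activity normalized with positive control as 0% and DMSO as 100%.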

SMILES	IC50 [µM]
Cc1cc(COc2cc3[nH]c(CNC(=O)C4(C)CC4)cc3cc2C(F)F)no1 [Compound 647, N-((5-(difluoromethyl)-6-((5-methylisoxazol-3-yl)methoxy)-1H-indol-2-yl)methyl)-1-methylcyclopropane-1-carboxamide]	0.68
Cc1cc(COc2cc3[nH]c(CNC(=O)C4CCN(C)C4=O)cc3cc2Cl)on1 (racemic) [Compound 574, (R)-N-((5-chloro-6-((3-methylisoxazol-5-yl)methoxy)-1H-indol-2-yl)methyl)-1-methyl-2-oxopyrrolidine-3-carboxamide and (S)-N-((5-chloro-6-((3-methylisoxazol-5-yl)methoxy)-1H-indol-2-yl)methyl)-1-methyl-2-oxopyrrolidine-3-carboxamide]	3.6
COC(=O)NCc1cc2cc(F)c(OCc3cc(C)no3)cc2[nH]1 [Compound 621, methyl ((5-fluoro-6-((3-methylisoxazol-5-yl)methoxy)-1H-indol-2-yl)methyl)carbamate]	1.77
COCC(=O)NCc1cc2cc(F)c(OCc3cc(C)no3)cc2[nH]1 [Compound 263, N-((5-fluoro-6-((3-methylisoxazol-5-yl)methoxy)-1H-indol-2-yl)methyl)-2-methoxyacetamide]	0.174
O=C(NCc1cc2c(F)cc(OCc3cscn3)cc2[nH]1)N1CCC1 [Compound 422, N-((4-fluoro-6-(thiazol-4-ylmethoxy)-1H-indol-2-yl)methyl)azetidine-1-carboxamide]	0.337
Cc1cc(COc2cc3[nH]c(CNC(=O)[C@H]4C[C@H]4F)cc3cc2Cl)on1 [Compound 539, (1R,2R)-N-((5-chloro-6-((3-methylisoxazol-5-yl)methoxy)-1H-indol-2-yl)methyl)-2-fluorocyclopropane-1-carboxamide]	0.123
O=C(NCc1cc2cc(F)c(OCc3cscn3)cc2[nH]1)C1(C(F)(F)F)CC1 [Compound 127, N-((5-fluoro-6-(thiazol-4-ylmethoxy)-1H-indol-2-yl)methyl)-1-(trifluoromethyl)cyclopropane-1-carboxamide]	0.098
CC(=O)NCc1cc2cc(Cl)c(OCC3CC3(F)F)cc2[nH]1 (stereo not drawn) [Compound 458, N-((5-chloro-6-((2,2-difluorocyclopropyl)methoxy)-1H-indol-2-yl)methyl)acetamide]	7.67
O=C(NCc1cc2cc(Cl)c(OCc3cscn3)cc2[nH]1)[C@@H]1CCCO1 [Compound 293, (S)-N-((5-chloro-6-(thiazol-4-ylmethoxy)-1H-indol-2-yl)methyl)tetrahydrofuran-2-carboxamide]	0.5
O=C(NCc1cc2cc(C3CC3)c(OCc3ccon3)cc2[nH]1)N1CCC1 [Compound 653, N-((5-cyclopropyl-6-(isoxazol-3-ylmethoxy)-1H-indol-2-yl)methyl)azetidine-1-carboxamide]	0.387
O=C(NCc1cc2cc(Cl)c(OCc3cscn3)cc2[nH]1)C1CCO1 (stereo not drawn) [Compound 269, N-((5-chloro-6-(thiazol-4-ylmethoxy)-1H-indol-2-yl)methyl)oxetane-2-carboxamide]	0.0666
Cc1cc(COc2cc3[nH]c(CNC(=O)[C@H]4CCCO4)cc3cc2Cl)on1 [Compound 311, (R)-N-((5-chloro-6-((3-methylisoxazol-5-yl)methoxy)-1H-indol-2-yl)methyl)tetrahydrofuran-2-carboxamide]	0.129
CO[C@H]1C[C@@H](Oc2cc3[nH]c(CNC(C)=O)cc3cc2Cl)C1 [Compound 463, N-((5-chloro-6-((cis)-3-methoxycyclobutoxy)-1H-indol-2-yl)methyl)acetamide]	> 8.73
Cc1cc(COc2cc3[nH]c(CNC(=O)[C@@H]4C[C@@H]4F)cc3cc2Cl)on1 [Compound 540, (1S,2S)-N-((5-chloro-6-((3-methylisoxazol-5-yl)methoxy)-1H-indol-2-yl)methyl)-2-fluorocyclopropane-1-carboxamide]	0.131
CN(C)CC(=O)NCc1cc2cc(Cl)c(OCc3cscn3)cc2[nH]1 [Compound 580, N-((5-chloro-6-(thiazol-4-ylmethoxy)-1H-indol-2-yl)methyl)-2-(dimethylamino)acetamide]	0.62
COC(C)C(=O)NCc1cc2cc(Cl)c(OCc3cscn3)cc2[nH]1 (stereo not drawn) [Compound 271, N-((5-chloro-6-(thiazol-4-ylmethoxy)-1H-indol-2-yl)methyl)-2-methoxypropanamide]	0.515
Cc1cc(COc2cc3[nH]c(CNC(=O)CC(F)(F)F)cc3cc2Cl)on1 [Compound 564, N-((5-chloro-6-((3-methylisoxazol-5-yl)methoxy)-1H-indol-2-yl)methyl)-3,3,3-trifluoropropanamide]	0.174
O=C(CC12CC(C1)C2)NCc1cc2cc(Cl)c(OCc3cscn3)cc2[nH]1 [Compound 555, 2-(bicyclo[1.1.1]pentan-1-yl)-N-((5-chloro-6-(thiazol-4-ylmethoxy)-1H-indol-2-yl)methyl)acetamide]	3.04
Cc1cc(COc2cc3[nH]c(CNC(=O)[C@@H]4CC(F)(F)CN4)cc3cc2Cl)on1 [Compound 666, (S)-N-((5-chloro-6-((3-methylisoxazol-5-yl)methoxy)-1H-indol-2-yl)methyl)-4,4-difluoropyrrolidine-2-carboxamide]	2.99
CC(=O)NCc1cc2cc(F)c(OCc3cscn3)cc2[nH]1 [Compound 208, N-((5-fluoro-6-(thiazol-4-ylmethoxy)-1H-indol-2-yl)methyl)acetamide]	0.133

The next lines start with the values.

IC50 [µM]	SMILES
0.391	CC1(C(=O)NCc2cc3cc(OC(F)F)c(OCc4cscn4)cc3[nH]2)CC1 [Compound 604, N-((5-(difluoromethoxy)-6-(thiazol-4-ylmethoxy)-1H-indol-2-yl)methyl)-1-methylcyclopropane-1-carboxamide]
0.654	CC1(C(=O)NCc2cc3cc(C4CC4(F)F)c(OCc4cscn4)cc3[nH]2)CC1 (stereo not drawn) [Compound 657, N-((5-(2,2-difluorocyclopropyl)-6-(thiazol-4-ylmethoxy)-1H-indol-2-yl)methyl)-1-methylcyclopropane-1-carboxamide]
17.6	CC(C)c1cc(COc2cc3[nH]c(CNC(=O)C4(C)CC4)cc3cc2Cl)no1 [Compound 102, N-((5-chloro-6-((5-isopropylisoxazol-3-yl)methoxy)-1H-indol-2-yl)methyl)-1-methylcyclopropane-1-carboxamide]
0.126	CC1(C(=O)NCc2cc3cc(Cl)c(OCCOC4CC4)cc3[nH]2)CC1 [Compound 335, N-((5-chloro-6-(2-cyclopropoxyethoxy)-1H-indol-2-yl)methyl)-1-methylcyclopropane-1-carboxamide]
0.492	CC1(C(=O)NCc2cc3cc(Cl)c(OCCC4CCCO4)cc3[nH]2)CC1 (racemic) [Compound 397, (S)-N-((5-chloro-6-(2-(tetrahydrofuran-2-yl)ethoxy)-1H-indol-2-yl)methyl)-1-methylcyclopropane-1-carboxamide and (R)-N-((5-chloro-6-(2-(tetrahydrofuran-2-yl)ethoxy)-1H-indol-2-yl)methyl)-1-methylcyclopropane-1-carboxamide]
0.119	O=C(NCc1cc2cc(Cl)c(OCc3cscn3)cc2[nH]1)C1(C(F)(F)F)CC1 [Compound 144, N-((5-chloro-6-(thiazol-4-ylmethoxy)-1H-indol-2-yl)methyl)-1-(trifluoromethyl)cyclopropane-1-carboxamide]
0.644	CC1(C(=O)NCc2cc3cc(Cl)c(OCC4COCCO4)cc3[nH]2)CC1 (racemic) [Compound 396, (S)-N-((6-((1,4-dioxan-2-yl)methoxy)-5-chloro-1H-indol-2-yl)methyl)-1-methylcyclopropane-1-carboxamide and (R)-N-((6-((1,4-dioxan-2-yl)methoxy)-5-chloro-1H-indol-2-yl)methyl)-1-methylcyclopropane-1-carboxamide]
0.225	CSc1cc2cc(CNC(=O)C3(C)CC3)[nH]c2cc1OCc1ccon1 [Compound 391, N-((6-(isoxazol-3-ylmethoxy)-5-(methylthio)-1H-indol-2-yl)methyl)-1-methylcyclopropane-1-carboxamide]
0.556	CC1(C(=O)NCc2cc3cc(Cl)c(OCc4ncsc4Cl)cc3[nH]2)CC1 [Compound 400, N-((5-chloro-6-((5-chlorothiazol-4-yl)methoxy)-1H-indol-2-yl)methyl)-1-methylcyclopropane-1-carboxamide]
1.2	O=C(NCc1cc2cc(Cl)c(OCc3cscn3)cc2[nH]1)C12CCC(CC1)C2 [Compound 556, N-((5-chloro-6-(thiazol-4-ylmethoxy)-1H-indol-2-yl)methyl)bicyclo[2.2.1]heptane-1-carboxamide]
